The results in this text go back to the RepoRT retention time repository.

Each structure is given as a SMILES string.

The series can be described thus: Agilent ZORBAX 300 SB-C18, 150 × 1 mm, 3.5 µm; A: water + 0.01% heptafluorobutyric acid; B: acetonitrile + 0.01% heptafluorobutyric acid; gradient (min/%B) 0/0 100/90. The conditions noted are these: stereoisomer not certain.
In the case of `Cc1cc(=O)[nH]c(N)n1`, the LC retention time was determined as 5.97 min. Next, `CC1CCc2[nH]c3ccccc3c2C1` (configuration not stated): 16.9 min; `Cn1c(=O)c2n[nH]c(=S)nc2n(C)c1=O`: 7.17 min; `CCCCCC(N)=O`: 8.31 min.

In the case of `Cc1cccc(C(O)(C(=O)NN(C(=O)Nc2ccccc2)c2ccccc2)c2cccc(C)c2)c1`, the LC retention time was 16.3 min. Then `NC(=O)c1ccccc1NC(=O)Cn1cnc2ccccc2c1=O`, with 9.05 min; and `CNC1C(OC2C(OC3C(O)C(O)C(N=C(N)N)C(O)C3N=C(N)N)OC(C)C2(O)C=O)OC(CO)C(O)C1O` (configuration not stated), with 7.82 min; and `CN(C)CCN`, with 6.51 min. In the case of `COC(=O)CCC1CCCNC1` (configuration not stated), the LC retention time was determined as 7.49 min. Next, `OCc1cccnc1`: 4.28 min. On to `CCCC(N)=O`, for which the LC retention time worked out at 4.71 min.

In the case of `CCCNC1CCN(C(C)=O)CC1`, the LC retention time came out at 6.77 min.

In the case of `CCn1c2ccccc2c2cc(CNC)ccc21`, the LC retention time is 10.2 min. For `O=C(c1cncc(C(=O)N2CCC(Cc3ccccc3)CC2)c1)N1CCC(Cc2ccccc2)CC1`, the LC retention time was 17.1 min. Then `c1ccc(Nc2nc(-c3ccccc3)nc3ccccc23)cc1`, with 11.9 min; and `O=C(O)c1cc(N2CCCC2=O)cc(N2CCCC2=O)c1`, with 8.34 min; and `CC(C)NCCCNC(C)C`, with 7.27 min. For `C#CC(C)(C)NC(C)=O`, the LC retention time turned out to be 6.79 min. With `CCOc1nc(N(c2ccccc2)c2ccccc2)[nH]c(=O)n1`, the LC retention time was found to be 11.7 min. Then `CCCNC(=O)N1CCCC(C(N)=O)C1` (configuration not stated), with 6.98 min; and `C=CCC1(Nc2ccccc2)CCCCC1`, with 11.3 min; and `Cc1cn(C2CC(O)C(CO)O2)c(=O)[nH]c1=O` (configuration not stated), with 8.97 min. Next, `S=C(Nc1cccnc1)NC1CCCc2ccccc21` (configuration not stated): 11 min; `O=c1c(Cc2ccccc2)c(O)c2ccccc2n1Cc1ccccc1`: 15.2 min. Then `c1cn[nH]n1`, with 2.1 min.

Regarding `CCOC(=O)c1ccc(NC(=O)N2CCCC2)cc1`, the LC retention time is 11.6 min. Then `CCCCCCCCCCCC(N)=O`, with 16.7 min. Next, `CN1CCC2(CC1)NC(=O)N(c1ccccc1)N2`: 7.95 min; `CCc1ccc(NCCC(=O)c2ccc3c(c2)Cc2ccccc2-3)cc1`: 16.3 min.

Take `Cc1ccc(-c2cc(C(=O)O)c3ccccc3n2)cc1C`: the LC retention time was 13.3 min. Then `COc1ccc(NC(=O)Nc2ccc(OCC(=O)N3CCOCC3)cc2)cc1`, with 10 min; and `COc1ccc(-c2cnc3ccccc3n2)cc1`, with 14.7 min; and `CC[N+](C)(CC)CC`, with 6.48 min. Next, `O=C(O)C1CCCN(CCc2ccccc2)C1` (configuration not stated): 8.36 min; `NCCCCCCO`: 6.25 min; `NNC(=S)Nc1ccccc1`: 8.31 min. On to `Cc1nc(N=C(N)N)nc2c(C)cccc12`, for which the LC retention time was 9.23 min.
